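These data come from cells grown in 96-well plates and exposed to compound for 48 hours at five concentrations. Here, GI50 denotes the concentration required for 50% inhibition of growth. TGI: concentration producing complete growth inhibition.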
Assays:
Assay in all cases: NCI-60 cell line screen, 48 h
HCT-15 colon = tested on: HCT-15 colon
SNB-19 CNS = tested on: SNB-19 CNS
SW-620 colon = tested on: SW-620 colon
IGROV1 ovarian = tested on: IGROV1 ovarian
ACHN renal = tested on: ACHN renal
SNB-75 CNS = tested on: SNB-75 CNS
MALME-3M melanoma = tested on: MALME-3M melanoma
CCRF-CEM leukemia = tested on: CCRF-CEM leukemia
SF-539 CNS = tested on: SF-539 CNS
BT-549 breast = tested on: BT-549 breast

Compound | GI50 (HCT-15 colon) [µM] | TGI (HCT-15 colon) [µM] | GI50 (SNB-19 CNS) [µM] | TGI (SNB-19 CNS) [µM] | GI50 (SW-620 colon) [µM] | TGI (SW-620 colon) [µM] | GI50 (IGROV1 ovarian) [µM] | TGI (IGROV1 ovarian) [µM] | GI50 (ACHN renal) [µM] | TGI (ACHN renal) [µM] | GI50 (SNB-75 CNS) [µM] | TGI (SNB-75 CNS) [µM] | GI50 (MALME-3M melanoma) [µM] | TGI (MALME-3M melanoma) [µM] | GI50 (CCRF-CEM leukemia) [µM] | TGI (CCRF-CEM leukemia) [µM] | GI50 (SF-539 CNS) [µM] | TGI (SF-539 CNS) [µM] | GI50 (BT-549 breast) [µM] | TGI (BT-549 breast) [µM]
COc1ccc(/C=C2/N=C(c3ccccc3)N(c3c(C)n(C)n(-c4ccccc4)c3=O)C2=O)cc1OC | > 100 | > 100 | > 100 | > 100 | > 100 | > 100 | > 100 | > 100 | > 100 | > 100 | 86.4 | > 100 | > 100 | > 100 | > 100 | > 100 | > 100 | > 100 |  | 
N#C/C1=C(\N)CCSSSC1 |  | 98.2 |  | > 100 |  | > 100 |  | > 100 |  | > 100 |  | > 100 |  | > 100 |  | > 100 |  | > 100 |  | 
CCOc1ccccc1NC(=O)C(=O)CC(=O)c1sc(Nc2nnc(-c3ccc(Cl)c(Cl)c3)o2)nc1C |  | > 100 |  | > 100 |  | > 100 |  | > 100 |  | > 100 |  | > 100 |  | > 100 |  | > 100 |  | > 100 |  | 
OCC1OC(c2nc(C3=NCCCN3)cs2)C(O)C1O (stereo unspecified) |  | > 100 |  | > 100 |  | > 100 |  | > 100 |  | > 100 |  |  |  | > 100 |  | > 100 |  | > 100 |  | 
O=C(/C=C/c1cccc2ccccc12)c1ccccc1Cl |  | 24.3 |  | 27 |  | 17.6 |  | 31 |  | 31.3 |  | 30.5 |  | 30.2 |  | 17.2 |  | 31.9 |  | 
C1=CC(N(c2ccccc2)C2C=CCCC2)CCC1 (stereo unspecified) |  | > 100 |  |  |  | > 100 |  | > 100 |  | > 100 |  |  |  |  |  | > 100 |  | > 100 |  | 
CCC[CH2][Sn]([Cl])([CH2]CCC)[CH2]CCC | 0.1 | 0.242 | 0.174 | 0.346 | 0.125 | 0.273 | 0.169 | 0.625 | 0.144 | 0.276 | 0.111 | 0.354 | 0.123 | 0.265 | 0.0288 | 0.225 |  |  |  | 
CCCc1nc(NC#N)nc(C(=O)Nc2ccccc2)c1CC |  | > 100 |  | > 100 |  | > 100 |  | > 100 |  | > 100 |  | > 100 |  | > 100 |  |  |  | > 100 |  | 
CC12CP(=O)(c3ccccc3)CC1C2(Cl)Cl (stereo unspecified) |  |  |  | > 100 |  | > 100 |  | > 100 |  |  |  | > 100 |  |  |  | > 100 |  | > 100 |  | 
CO/N=C(\COc1ccc2c(c1)oc(=O)c1cc(OC)ccc12)c1ccc(OC)cc1 | > 100 | > 100 | > 100 | > 100 | > 100 | > 100 | > 100 | > 100 | > 100 | > 100 |  |  | > 100 | > 100 | > 100 | > 100 | > 100 | > 100 | > 100 | > 100
COc1ccc(C(=O)/C=C/c2cc(-c3cc(OC)c(OC)c(OC)c3)n[nH]2)cc1OC | 1.27 | 2.85 | 1.42 | 3.01 | 1.37 | 2.99 | 1.8 | 3.41 | 1.66 | 3.09 |  |  | 1.99 | 3.68 | 0.626 | 3.93 | 1.27 | 2.6 | 1.44 | 2.9
CCOC(=O)C(=[N+]=[N-])[Si](C)(C)C |  | > 100 |  | > 100 |  | > 100 |  | > 100 |  | > 100 |  | > 100 |  | > 100 |  |  |  | > 100 |  | 
CCOc1ccc(NC(=O)CC#N)cc1 |  |  |  | > 100 |  | > 100 |  | > 100 |  | > 100 |  | > 100 |  | > 100 |  | > 100 |  |  |  | 
O=C(Nc1nc(=S)c2c(ncn2CCOC(=O)c2ccccc2)[nH]1)c1ccccc1 |  | > 100 |  | > 100 |  | > 100 |  | > 100 |  | > 100 |  | 47.5 |  | > 100 |  | > 100 |  | 94.3 |  | 
CC1CN(C(=O)CN2CCC(CCCCN(C)C)CC2)c2ccccc2NC1=O (stereo unspecified) |  | > 100 |  | > 100 |  | > 100 |  | > 100 |  | > 100 |  |  |  | > 100 |  | > 100 |  |  |  | 
COC(=O)C(Cc1nc2ccc(Cl)cc2[nH]c1=O)/C(=N\N)C(=O)Nc1cc(C)c(Cl)cc1S(=O)(=O)O (stereo unspecified) |  | > 100 |  | > 100 |  |  |  | > 100 |  | > 100 |  |  |  | > 100 |  | > 100 |  | > 100 |  | 
CC(=O)c1sc(Nc2nnc(-c3ccc(-c4nnc(Nc5nc(C)c(C(C)=O)s5)o4)cc3)o2)nc1C |  | > 100 |  | > 100 |  | > 100 |  | > 100 |  | > 100 |  |  |  | > 100 |  | > 100 |  |  |  | 

Compound | GI50 (HCT-15 colon) [µM] | TGI (HCT-15 colon) [µM] | GI50 (SNB-19 CNS) [µM] | TGI (SNB-19 CNS) [µM] | GI50 (SW-620 colon) [µM] | TGI (SW-620 colon) [µM] | GI50 (IGROV1 ovarian) [µM] | TGI (IGROV1 ovarian) [µM] | GI50 (ACHN renal) [µM] | TGI (ACHN renal) [µM] | GI50 (SNB-75 CNS) [µM] | TGI (SNB-75 CNS) [µM] | GI50 (MALME-3M melanoma) [µM] | TGI (MALME-3M melanoma) [µM] | GI50 (CCRF-CEM leukemia) [µM] | TGI (CCRF-CEM leukemia) [µM] | GI50 (SF-539 CNS) [µM] | TGI (SF-539 CNS) [µM] | GI50 (BT-549 breast) [µM] | TGI (BT-549 breast) [µM]
CCOC(=O)Nc1ccc(C)c(NC(=O)OCC)c1 |  | > 100 |  | > 100 |  | > 100 |  | > 100 |  | > 100 |  | > 100 |  | > 100 |  | > 100 |  | > 100 |  | 
Cc1cc(Cl)ccc1NC(=O)C(=O)Cc1nc2ccccc2o1 |  | > 100 |  | > 100 |  | > 100 |  | > 100 |  | > 100 |  | > 100 |  | > 100 |  | > 100 |  | > 100 |  | 
CCN1CCC(O)(c2ccc(OC)cc2)C(C(=O)c2ccc(OC)cc2)C1 (stereo unspecified) |  | 43.1 |  | 69.1 |  | 25.9 |  | > 100 |  | 30.1 |  | 30.6 |  |  |  |  |  | 32.4 |  | 
CCC(C)COC(=O)c1ccc(N=Cc2ccc(C=Nc3ccc(C(=O)OCC(C)CC)cc3)cc2)cc1 (stereo unspecified) |  | > 100 |  | > 100 |  | > 100 |  | > 100 |  | > 100 |  | > 100 |  | > 100 |  | > 100 |  | > 100 |  | 
O=C1/C(=C/c2ccc3c(c2)OCO3)SC2C=Nc3ccccc3N12 (stereo unspecified) |  | > 100 |  | > 100 |  | > 100 |  | > 100 |  | > 100 |  | > 100 |  | > 100 |  |  |  | > 100 |  | 
Cc1c2c(C#N)nccc2c(C)c2c1c1ccccc1n2Cc1ccccc1 |  | > 100 |  | > 100 |  | > 100 |  | > 100 |  | > 100 |  | > 100 |  | > 100 |  | > 100 |  | > 100 |  | 
CC(=O)Oc1c2c(c(O)c3ccccc13)C(n1cnc3c(ncn3C3OC(CO)C4OC(C)(C)OC43)c1=N)CCC2 (stereo unspecified) |  | 29.3 |  | 30.3 |  | 29.6 |  | 40.9 |  | 30.9 |  | 32.3 |  | 23.4 |  | 25.3 |  | 32.2 |  | 
CCOc1ccc(NC(=O)C(=O)CC(=O)c2c(C)n([O-])c3ccccc3[n+]2=O)cc1 |  | > 100 |  | > 100 |  | > 100 |  | > 100 |  | > 100 |  | > 100 |  | > 100 |  | > 100 |  | > 100 |  | 
COc1cccc(C2=NC(C(C)C)CO2)c1 (stereo unspecified) |  | > 100 |  | > 100 |  | > 100 |  | > 100 |  | > 100 |  | > 100 |  | > 100 |  | > 100 |  | > 100 |  | 
CN(C)C(n1cc2c(c1)-c1ccc(Cl)cc1C(c1ccccc1F)=NC2)n1cc2c(c1)-c1ccc(Cl)cc1C(c1ccccc1F)=NC2 |  | > 100 |  | > 100 |  | > 100 |  | > 100 |  | > 100 |  | 77.2 |  | > 100 |  | > 100 |  | > 100 |  | 
COC1(OC)C(N(C)C)=C(Cl)C(=O)/C1=C/C=O |  | > 100 |  | > 100 |  | > 100 |  | > 100 |  | > 100 |  |  |  | > 100 |  | 98.2 |  |  |  | 
Cc1[nH]c2ccccc2c1C(=O)/C=C/c1ccccc1O |  |  |  | > 100 |  | > 100 |  | > 100 |  | > 100 |  | > 100 |  | > 100 |  | > 100 |  |  |  | 
N#CC(C(=O)C(=O)C(C#N)c1ccc(Br)cc1)c1ccc(Br)cc1 (stereo unspecified) |  | 26.1 |  | 30.7 |  | 31.3 |  | 30 |  | 25.1 |  | 17.7 |  | 27.7 |  | > 100 |  | 29.4 |  | 
[N-]=[N+]=N[C@H]1C[C@@H](CO)O[C@H]1n1cnc2c(N)ncnc21 |  |  |  | > 100 |  | > 100 |  |  |  | > 100 |  | > 100 |  | > 100 |  |  |  | > 100 |  | 
Cc1ccc(NC(=O)CCc2cc(C(C)(C)C)nc(=S)[nH]2)cc1C |  | > 100 |  | > 100 |  | > 100 |  | > 100 |  | > 100 |  | > 100 |  | > 100 |  | > 100 |  | > 100 |  | 
CN(C)CC1CCCC/C1=N/OC(=O)c1ccc(Cl)cc1 (stereo unspecified) |  | > 100 |  |  |  | > 100 |  | > 100 |  | > 100 |  | > 100 |  | > 100 |  | > 100 |  | > 100 |  | 
COc1ccc(CC2NCCc3c2[nH]c2ccccc32)cc1 (stereo unspecified) |  | > 100 |  | > 100 |  | > 100 |  | > 100 |  | > 100 |  | > 100 |  |  |  | > 100 |  | > 100 |  | 
